According to US20080103209A1, “Compounds And Methods For Treating Non-Inflammatory Pain Using Ppar Alpha Agonists” (The Regents of The University of California, priority 2004, published 2008):

What was measured:
mice [1] = test: Magnesium sulfate-evoked writhing test; assay type: in vivo, mouse; conditions: for average ED50, magnesium sulfate-evoked writhing / number of writhing episodes evoked by magnesium sulfate: subcutaneous, Swiss mice; for average ED50, magnesium sulfate-evoked writhing: n=8; for number of writhing episodes evoked by magnesium sulfate: GW7647 1-30, Wy-14643 4-80, PEA 1-20 mg-kg^−1
Method: Mice received a single dose of magnesium sulfate (120 mg/kg, dissolved in 0.5 ml saline, i.p.) and subsequent writhing episodes were monitored for a period of 30 min thereafter. Drugs were administered in saline/Tween 80/polyethylenglycol, (90/5/5) subcutaneously, 30 minutes before magnesium sulfate.
Next, the effect of PPARα agonists on the nocifensive behavior elicited by intraperitoneal injection of magnesium sulfate in mice, a model of visceral pain (Calignano, et al, Eur J Pharmacol 419, 191-8. (2001)), was explored.
Writhing test. Magnesium sulfate was injected (120 mg-kg^−1 in 0.5 ml saline, i.p.) in 12-h food-deprived mice and measured writhing episodes for 30 min (Calignano, et al, Eur J Pharmacol 419, 191-8. (2001)). Drugs or vehicle were administered by subcutaneous injection 30 min before magnesium sulfate.

mice [2] = test: TPA-induced ear edema (irritant contact dermatitis); assay type: in vivo, mouse
Description: In addition to rapid-onset analgesia, PEA also exerts prolonged anti-inflammatory effects [Benvenuti, et al., Boll Soc It Biol Sper 44, 809-813 (1968); Lambert, et al., Curr Med. Chem. 9, 663-74 (2002)], which are associated with the down-regulation of pro-inflammatory proteins such as nitric oxide synthase (NOS) [Costa, et al., Br J Pharmacol 137, 413-20. (2002)]. Two models of acute inflammation were used to examine whether such effects are mediated through PPARα. First, paw edema was induced in C57B16J wild-type and PPARα^−/− mice by local injection of the irritant, carrageenan [Cirino, et al., Eur J Pharmacol 166, 505-10 (1989)]. […] Next, ear edema was produced in CD1 mice by topical administration of the phorbol ester, 12-O-tetradecanoylphorbol-13-acetate (TPA) [Sheu, et al., J Invest Dermatol., 94-101. (2002)]. […] In a parallel set of experiments, the effects of PEA (20 μg) on TPA-induced edema were tested in C57B16J wild-type and PPARα^−/− mice. […] Together, these findings indicate that PEA reduces acute nociception and inflammation through activation of PPARα.
As previous described procedure [Sheu, et al., J Invest Dermatol., 94-101. (2002)], 12-O-tetradecanoylphorbol-13-acetate (TPA) was dissolved in acetone (0.03%, w v^−1) and topically delivered with a pipette to the inner and outer surfaces (10 μl/side) of mice ears. Experimental agents were dissolved in acetone and delivered topically (20 μl/side) 45 minutes and 4 hours after TPA. 18 hours after TPA administration, the mice were euthanized with CO2 and the ears punched (diameter=2 mm) four times. The 4 excised punches of skin were combined and weighed to assess edema.

human CB2 = molecular target: T1, human CB2 (Homo sapiens, UniProt P34972); test: CB2 receptor binding, [3H]-WIN-55212-2 displacement in CB2-overexpressing CHO cell membranes
T1 construct: purchased Perkin-Elmer, Boston, Mass; host or cells: CHO cells (membranes)

C57BL6/J mice = test: TPA-induced edema of abdominal skin, topical administration; assay type: in vivo, mouse; conditions: PEA 450 μg, GW7647 755 μg
PPARα mRNA = PPARα mRNA expression in inflamed mouse skin; assay type: in vivo; conditions: topical to inflamed abdominal skin; PEA 450 μg, GW7647 755 μg
Swiss mice [3] = test: Sciatic nerve ligation neuropathy, mechanical and thermal hyperalgesia; assay type: in vivo, mouse; conditions: for mechanical and thermal pain thresholds in the non-ligated paw of neuropathic mice: data not shown; for neuropathic hypersensitivity (mechanical and thermal pain thresholds), ligated limb: single s.c. dose day 7 and 14 after surgery, 60 min before test, PEA, GW7647 30 mg-kg^−1, gabapentin 60 mg-kg^−1
Method: To examine whether PPARα agonists modulate the persistent pain hypersensitivity associated with nerve injury, peripheral neuropathy was produced in mice by partially ligating the left sciatic nerve, a surgical procedure that results in the development of mechanical and thermal hyperalgesia in the operated limb (Bennett et al., Pain, 33, 87 (1988)).
Sciatic nerve ligation was performed essentially following the method of Bennett and Xie (Bennett et al., Pain 33, 87 (1988)). Briefly, male Swiss mice were anesthetized with sodium pentobarbital, the left sciatic nerve was exposed at mid-thigh level through a small incision and one-third to one-half of the nerve thickness was tightly ligated with a silk thread. The wound was closed with a single muscle suture and skin clips, and dusted with streptomycin powder. In sham-operated animals, the nerve was exposed but not ligated.
(§1) Mechanical hyperalgesia was determined by measuring paw withdrawal thresholds to an increasing pressure onto the dorsal surface of the paw using an analgesimeter (Ugo Basile, Italy) with a cut-off of 250 g. Withdrawal thresholds were measured on both the ipsilateral paw (inflamed or ligated) and contralateral paw (uninflamed or unligated) 60 min after subcutaneous drug administration.
(§2) Thermal hyperalgesia was assessed by the methods of Hargreaves (Hargreaves et al., Pain, 32, 77 (1988)) by measuring the latency to withdraw the hind paws from a focussed beam of radiant heat applied to the plantar surface, using an appropriate apparatus (Ugo Basile, Italy). The cut-off time was set at 30 sec. The mice were habituated to the apparatus for 10-15 min two days prior to the experiment.

Swiss mice [4] = test: Complete Freund's adjuvant-induced arthritis, hyperalgesia; assay type: in vivo, mouse; conditions: 30 mg-kg^−1 s.c., 60 min before test, day 7 and 14 after CFA
Method: as §1, §2

Swiss mice [5] = test: Prolonged carrageenan-induced paw oedema, hyperalgesia and oedema; assay type: in vivo, mouse; conditions: 30 mg-kg^−1 s.c. on the third day of carrageenan treatment
Description: The ability of PPARα agonists to attenuate hyperalgesia was further explored in two mouse models of subchronic inflammation: (i) experimental arthritis elicited by intradermal injection of complete Freund's adjuvant (CFA) into the base of the tail (Whiteley et al., Current Protocols in Pharmacology, 2, 5.5.1-5.5.5. (2001)); and (ii) prolonged oedema induced by repeated carrageenan injections into the paw (Otterness et al., Methods Enzymol, 162, 320 (1988)). […] Both drugs, but not their vehicle, suppressed mechanical (FIG. 7A, 7B) and thermal (data not shown) sensitivity.
Carrageenan-induced paw oedema. An inflammatory response was initiated in the left hindpaw of male Swiss mice by injecting %-carrageenan (1% weight-vol^−1 in sterile saline, 50 μl) using a 27-gauge needle, and maintained it by repeating the injections on day 3, 7 and 14 after the first administration. Paw oedema was measured using a mouse plethysmometer (Ugo Basile, Italy) or by weighing the excised paw.
as §1

[6] = topical co-application, CD1 mice

T1 sequence (P34972 whole entry): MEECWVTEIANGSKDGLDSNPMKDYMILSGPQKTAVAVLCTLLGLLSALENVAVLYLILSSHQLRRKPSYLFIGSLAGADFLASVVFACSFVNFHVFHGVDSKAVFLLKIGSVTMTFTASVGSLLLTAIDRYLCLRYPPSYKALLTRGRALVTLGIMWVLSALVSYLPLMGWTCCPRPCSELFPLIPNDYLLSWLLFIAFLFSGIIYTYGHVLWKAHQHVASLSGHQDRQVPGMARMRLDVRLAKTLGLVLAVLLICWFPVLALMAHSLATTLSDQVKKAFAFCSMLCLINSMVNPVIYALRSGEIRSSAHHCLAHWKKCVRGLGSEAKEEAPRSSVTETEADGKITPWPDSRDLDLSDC

| SMILES | average ED50, magnesium sulfate-evoked writhing (mice [1]) | number of writhing episodes evoked by magnesium sulfate (mice [1]) | anti-inflammatory activity on TPA-induced edema in PPARα−/− mice (mice [2]; PPARα−/− mice) | TPA-induced ear edema formation (mice [2]; [6]) | [^3H]-WIN-55212-2 Binding (% of control) (human CB2; Concentration 1 μM) | [^3H]-WIN-55212-2 Binding (% of control) (human CB2; Concentration 10 μM) | TPA-induced edema of abdominal skin (C57BL6/J mice) | PPARα mRNA expression (PPARα mRNA) | mechanical and thermal pain thresholds in the non-ligated paw of neuropathic mice (Swiss mice [3]) | neuropathic hypersensitivity (mechanical and thermal pain thresholds), ligated limb (Swiss mice [3]) | mechanical and thermal sensitivity in CFA arthritis (Swiss mice [4]) | mechanical sensitivity thresholds, carrageenan (Swiss mice [5]) | paw oedema, carrageenan (Swiss mice [5]) | magnesium sulfate induced writhing in PPARα−/− mice (mice [1]; PPARα−/− mice, 20 mg-kg^−1 s.c.) | TPA-induced edema in wild-type and PPARα−/− mice (mice [2]; PEA 20 μg, C57Bl6J wild-type and PPARα−/− mice) | ED50, TPA-induced ear edema (mice [2]; topical co-application, CD1 mice, n=5) | mechanical sensitivity thresholds after repeated dosing, vs vehicle-treated mice (Swiss mice [3]; 30 mg-kg^−1 s.c. once a day for 14 consecutive days from surgery) | dose dependence of antihyperalgesic response (mechanical withdrawal, day 14) (Swiss mice [3]; s.c.) |
| --- | --- | --- | --- | --- | --- | --- | --- | --- | --- | --- | --- | --- | --- | --- | --- | --- | --- | --- |
| CC(C)(Sc1ccc(CCN(CCCCC2CCCCC2)C(=O)NC2CCCCC2)cc1)C(=O)O [GW7647] | 7.5 mg/kg | dose-dependently decreased the number of writhing episodes | residual, albeit weak anti-inflammatory activity | attenuated | 102.1 ± 4.0 % of control | 91.6 ± 4.1 % of control | attenuated TPA-induced edema | increase in PPARα mRNA expression | did not affect | mimicked | suppressed | normalized mechanical sensitivity thresholds | no effect |  |  |  |  |  |
| CCCCCCCCCCCCCCCC(=O)NCCO [PEA, palmitoylethanolamide] | 9.9 mg/kg | dose-dependently decreased the number of writhing episodes |  | attenuated | 106.2 ± 2.5 % of control | 98.5 ± 4.2 % of control | attenuated TPA-induced edema | increase in PPARα mRNA expression | did not affect | reversal of neuropathic hypersensitivity | suppressed | normalized mechanical sensitivity thresholds | no effect | did not significantly modify | effective only in wild-type animals | 8.9 μg per ear | significantly higher | dose-dependent |
